Patent publication US12498382B2, “Biomarkers for vitiligo” (INCYTE CORPORATION, priority 2019, dated 2025)

System: HaCaT cells
Experiment: Concentrations of inflammatory mediators produced by HaCaT cells stimulated with TNFα and IFNγ in presence/absence of JAK inhibitors (ProCarta)
Assay type: cell-based, human
Procedure, shortened: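 HaCaT cells pre-treated 15 min with JAK inhibitors, then stimulated with TNFα and IFNγ (25 ng/mL each) at drug finals of 25, 50, 100 and 200 nM for 24 h at 37 °C. Secreted mediators in media measured by Luminex bead immunoassay; concentrations (pg/mL) from antigen standard curves.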

[1] = TNFα+IFNγ 25 ng/mL each, drug conc. 1st of 4 rows (cell not shown; prob. 25 nM)
[2] = TNFα+IFNγ 25 ng/mL each, drug conc. 2nd of 4 rows (cell not shown; prob. 50 nM)
[3] = TNFα+IFNγ 25 ng/mL each, drug conc. 3rd of 4 rows (cell not shown; prob. 100 nM)
[4] = TNFα+IFNγ 25 ng/mL each, drug conc. 4th of 4 rows (cell not shown; prob. 200 nM)
[5] = drug present, concentration not given

Structure (SMILES): C[C@@H](O)c1nc2cnc3ccsc3c2n1[C@H]1CC[C@H](CC#N)OC1 [Cpd D, ((2R,5S)-5-{2-[(1R)-1-hydroxyethyl]-1H-imidazo[4,5-d]thieno[3,2-b]pyridin-1-yl}tetrahydro-2H-pyran-2-yl)acetonitrile]
- IFN gamma concentration [1]: 24180.78 ± 2901.94 pg/mL
- IL1RA concentration [1]: 5760.33 ± 367.09 pg/mL
- IL1 alpha concentration [1]: 6.8 ± 0.39 pg/mL
- IL1 beta concentration [1]: 8.92 ± 0.42 pg/mL
- IL2 concentration [1]: 31.46 ± 1.56 pg/mL
- IL4 concentration [1]: 7.2 ± 1.25 pg/mL
- IL5 concentration [1]: 26.66 ± 1.72 pg/mL
- IL6 concentration [1]: 743.07 ± 36.3 pg/mL
- IL7 concentration [1]: 2.16 ± 0.11 pg/mL
- IL8 concentration [1]: 2820.21 ± 159.05 pg/mL
- IL9 concentration [1]: 3.7 ± 0^ pg/mL
- IL10 concentration [1]: 0.76 ± 0.08 pg/mL
- IL12p70 concentration [1]: 1.88 ± 0.19 pg/mL
- IL13 concentration [1]: 2.67 ± 0.24 pg/mL
- IL15 concentration [1]: 4.2 ± 0.86 pg/mL
- IL17A concentration [1]: 3.84 ± 0.3 pg/mL
- IL18 concentration [1]: 159.38 ± 4.31 pg/mL
- IL21 concentration [1]: 2.71 ± 0.18 pg/mL
- IL22 concentration [1]: 7.83 ± 0.75 pg/mL
- IL23 concentration [1]: 7.43 ± 0 pg/mL
- IL27 concentration [1]: 7.42 ± 0.9 pg/mL
- IL31 concentration [1]: 2.97 ± 0.37 pg/mL
- IP-10/CXCL10 concentration [1]: 3903.67 ± 366.97 pg/mL
- LIF concentration [1]: 65.71 ± 2.6 pg/mL
- MCP1 concentration [1]: 21968.74 ± 4662.32 pg/mL
- MIP1 alpha concentration [1]: 102.06 ± 4.18 pg/mL
- MIP1 beta concentration [1]: 313.64 ± 8.9 pg/mL
- PDGF-BB concentration [1]: 4.23 ± 0.18 pg/mL
- PIGF-1 concentration [1]: 59.56 ± 3.2 pg/mL
- RANTES concentration [1]: 237.57 ± 17.46 pg/mL
- SCF concentration [1]: 4.18 ± 0.24 pg/mL
- SDF-1 alpha concentration [1]: 3456.41 ± 158.06 pg/mL
- TNF alpha concentration [1]: 8951.15 ± 870.67 pg/mL
- TNF beta concentration [1]: 4.62 ± 0.49 pg/mL
- VEGF-A concentration [1]: 1303.84 ± 56.86 pg/mL
- VEGF-D concentration [1]: 8.7 ± 0.52 pg/mL
- IFN gamma concentration [2]: 25506.14 ± 3960.86 pg/mL
- IL1RA concentration [2]: 5709.52 ± 391.3 pg/mL
- IL1 alpha concentration [2]: 6.76 ± 0.4 pg/mL
- IL1 beta concentration [2]: 8.82 ± 0.46 pg/mL
- IL2 concentration [2]: 29.16 ± 2.01 pg/mL
- IL4 concentration [2]: 5.9 ± 1.18 pg/mL
- IL5 concentration [2]: 28.49 ± 1.85 pg/mL
- IL6 concentration [2]: 698.04 ± 29.79 pg/mL
- IL7 concentration [2]: 2.14 ± 0.07 pg/mL
- IL8 concentration [2]: 2907.08 ± 193.16 pg/mL
- IL9 concentration [2]: 3.37 ± 0.33 pg/mL
- IL10 concentration [2]: 0.67 ± 0.07 pg/mL
- IL12p70 concentration [2]: 1.69 ± 0.19 pg/mL
- IL13 concentration [2]: 2.21 ± 0.27 pg/mL
- IL15 concentration [2]: 2.82 ± 0.72 pg/mL
- IL17A concentration [2]: 4.15 ± 0.57 pg/mL
- IL18 concentration [2]: 156.12 ± 3.47 pg/mL
- IL21 concentration [2]: 2.13 ± 0.39 pg/mL
- IL22 concentration [2]: 8.9 ± 0^ pg/mL
- IL23 concentration [2]: 7.43 ± 0 pg/mL
- IL27 concentration [2]: 5.51 ± 1.25 pg/mL
- IL31 concentration [2]: 3.43 ± 0.31 pg/mL
- IP-10/CXCL10 concentration [2]: 3998.62 ± 456.34 pg/mL
- LIF concentration [2]: 66.01 ± 3.21 pg/mL
- MCP1 concentration [2]: 25836.84 ± 10636.84 pg/mL
- MIP1 alpha concentration [2]: 96.35 ± 3.57 pg/mL
- MIP1 beta concentration [2]: 316.87 ± 10.18 pg/mL
- PDGF-BB concentration [2]: 4.36 ± 0.18 pg/mL
- PIGF-1 concentration [2]: 56.72 ± 3.48 pg/mL
- RANTES concentration [2]: 237.55 ± 21.78 pg/mL
- SCF concentration [2]: 4.1 ± 0.21 pg/mL
- SDF-1 alpha concentration [2]: 3450.69 ± 158.13 pg/mL
- TNF alpha concentration [2]: 9862.6 ± 1041^ pg/mL
- TNF beta concentration [2]: 5.03 ± 0.38 pg/mL
- VEGF-A concentration [2]: 1286.84 ± 61.29 pg/mL
- VEGF-D concentration [2]: 8.49 ± 0.72 pg/mL
- IFN gamma concentration [3]: 29392.77 ± 4832.25 pg/mL
- IL1RA concentration [3]: 5879.83 ± 410.09 pg/mL
- IL1 alpha concentration [3]: 6.92 ± 0.4 pg/mL
- IL1 beta concentration [3]: 8.63 ± 0.36 pg/mL
- IL2 concentration [3]: 29.23 ± 1.62 pg/mL
- IL4 concentration [3]: 5.13 ± 0.78 pg/mL
- IL5 concentration [3]: 27.43 ± 2.11 pg/mL
- IL6 concentration [3]: 703.99 ± 42.22 pg/mL
- IL7 concentration [3]: 2.15 ± 0.14 pg/mL
- IL8 concentration [3]: 3061.2 ± 217.26 pg/mL
- IL9 concentration [3]: 3.58 ± 0.24 pg/mL
- IL10 concentration [3]: 0.81 ± 0.07 pg/mL
- IL12p70 concentration [3]: 1.75 ± 0.22 pg/mL
- IL13 concentration [3]: 2.98 ± 0.4 pg/mL
- IL15 concentration [3]: 3.29 ± 0.9 pg/mL
- IL17A concentration [3]: 3.57 ± 0.45 pg/mL
- IL18 concentration [3]: 156.97 ± 5.2 pg/mL
- IL21 concentration [3]: 2.64 ± 0.24 pg/mL
- IL22 concentration [3]: 8.21 ± 0.69 pg/mL
- IL23 concentration [3]: 7.43 ± 0 pg/mL
- IL27 concentration [3]: 5.92 ± 0.88 pg/mL
- IL31 concentration [3]: 4.14 ± 0.48 pg/mL
- IP-10/CXCL10 concentration [3]: 4100.26 ± 502.48 pg/mL
- LIF concentration [3]: 70.02 ± 3.89 pg/mL
- MCP1 concentration [3]: 15200 ± 0 pg/mL
- MIP1 alpha concentration [3]: 96.22 ± 3.58 pg/mL
- MIP1 beta concentration [3]: 317.95 ± 8.1 pg/mL
- PDGF-BB concentration [3]: 4.71 ± 0.23 pg/mL
- PIGF-1 concentration [3]: 59.49 ± 3.52 pg/mL
- RANTES concentration [3]: 241.39 ± 22.79 pg/mL
- SCF concentration [3]: 4.29 ± 0.29 pg/mL
- SDF-1 alpha concentration [3]: 3563.68 ± 157.35 pg/mL
- TNF alpha concentration [3]: 10525.46 ± 1077.11 pg/mL
- TNF beta concentration [3]: 4.47 ± 0.37 pg/mL
- VEGF-A concentration [3]: 1346.72 ± 67.56 pg/mL
- VEGF-D concentration [3]: 9.64 ± 0.91 pg/mL
- IFN gamma concentration [4]: 26972.77 ± 4164.13 pg/mL
- IL1RA concentration [4]: 5450.17 ± 388.11 pg/mL
- IL1 alpha concentration [4]: 6.3 ± 0.35 pg/mL
- IL1 beta concentration [4]: 8.81 ± 0.35 pg/mL
- IL2 concentration [4]: 31.88 ± 1.61 pg/mL
- IL4 concentration [4]: 8.19 ± 1.39 pg/mL
- IL5 concentration [4]: 25.61 ± 1.98 pg/mL
- IL6 concentration [4]: 646.2 ± 32.46 pg/mL
- IL7 concentration [4]: 2.14 ± 0.12 pg/mL
- IL8 concentration [4]: 2893.51 ± 190.51 pg/mL
- IL9 concentration [4]: 4.44 ± 0.54 pg/mL
- IL10 concentration [4]: 0.84 ± 0.08 pg/mL
- IL12p70 concentration [4]: 1.7 ± 0.2 pg/mL
- IL13 concentration [4]: 2.52 ± 0.42 pg/mL
- IL15 concentration [4]: 3.37 ± 0.8 pg/mL
- IL17A concentration [4]: 4.04 ± 0.49 pg/mL
- IL18 concentration [4]: 155.77 ± 4.15 pg/mL
- IL21 concentration [4]: 2.84 ± 0.04 pg/mL
- IL22 concentration [4]: 8.39 ± 0.51 pg/mL
- IL23 concentration [4]: 7.43 ± 0 pg/mL
- IL27 concentration [4]: 8.3 ± 1.2 pg/mL
- IL31 concentration [4]: 3.05 ± 0.38 pg/mL
- IP-10/CXCL10 concentration [4]: 4407.56 ± 645.63 pg/mL
- LIF concentration [4]: 67.62 ± 3.58 pg/mL
- MCP1 concentration [4]: 18512.1 ± 3312.1 pg/mL
- MIP1 alpha concentration [4]: 88.49 ± 5.06 pg/mL
- MIP1 beta concentration [4]: 316.74 ± 9.29 pg/mL
- PDGF-BB concentration [4]: 4.75 ± 0.16 pg/mL
- PIGF-1 concentration [4]: 55.63 ± 3.23 pg/mL
- RANTES concentration [4]: 238.51 ± 23.12 pg/mL
- SCF concentration [4]: 4.07 ± 0.21 pg/mL
- SDF-1 alpha concentration [4]: 3464.97 ± 155.2 pg/mL
- TNF alpha concentration [4]: 9777.73 ± 966.87 pg/mL
- TNF beta concentration [4]: 4.96 ± 0.56 pg/mL
- VEGF-A concentration [4]: 1256.89 ± 60.57 pg/mL
- VEGF-D concentration [4]: 8.03 ± 0.93 pg/mL
- IL1 alpha concentration [5]: 0.26 ± 0.05 pg/mL
- IL1 beta concentration [5]: 0.98 ± 0.12 pg/mL
- IL2 concentration [5]: 2.4 ± 0.09 pg/mL
- IL4 concentration [5]: 5.34 ± 0.89 pg/mL
- IL5 concentration [5]: 2.88 ± 0.36 pg/mL
- IL6 concentration [5]: 28.84 ± 1.89 pg/mL
- IL7 concentration [5]: 3.44 ± 0.16 pg/mL
- IL8 concentration [5]: 257.62 ± 7.07 pg/mL
- IL9 concentration [5]: 3.98 ± 0.36 pg/mL
- IL10 concentration [5]: 0.43 ± 0.11 pg/mL
- IL12p70 concentration [5]: 2.15 ± 0.26 pg/mL
- IL13 concentration [5]: 1.26 ± 0.15 pg/mL
- IL15 concentration [5]: 3.2 ± 0.71 pg/mL
- IL17A concentration [5]: 1.22 ± 0.2 pg/mL
- IL18 concentration [5]: 6.54 ± 0.37 pg/mL
- IL21 concentration [5]: 2.5 ± 0.3 pg/mL
- IL22 concentration [5]: 8.08 ± 0.82 pg/mL
- IL23 concentration [5]: 6.43 ± 1.28 pg/mL
- IL27 concentration [5]: 11.9 ± 2.31 pg/mL
- IL31 concentration [5]: 3.7 ± 0.06 pg/mL
- IP-10/CXCL10 concentration [5]: 20.23 ± 0.48 pg/mL
- LIF concentration [5]: 22.66 ± 0.82 pg/mL
- MCP1 concentration [5]: 1306.83 ± 54.65 pg/mL
- MIP1 alpha concentration [5]: 2.75 ± 0.26 pg/mL
- MIP1 beta concentration [5]: 113.08 ± 4.82 pg/mL
- PDGF-BB concentration [5]: 1.93 ± 0.18 pg/mL
- PIGF-1 concentration [5]: 20.55 ± 1.16 pg/mL
- RANTES concentration [5]: 10.17 ± 0.54 pg/mL
- SCF concentration [5]: 1.91 ± 0.15 pg/mL
- SDF-1 alpha concentration [5]: 990.69 ± 48.87 pg/mL
- TNF alpha concentration [5]: 2.41 ± 0.7 pg/mL
- TNF beta concentration [5]: 4.42 ± 0.57 pg/mL
- VEGF-A concentration [5]: 598.11 ± 16.67 pg/mL
- VEGF-D concentration [5]: 3.55 ± 0.66 pg/mL
